Measured values from article PMC7024302, “Ultrashort Cationic Lipopeptides–Effect of N-Terminal Amino Acid and Fatty Acid Type on Antimicrobial Activity and Hemolysis” (Molecules, 2020).
Values after ≈ are worked out from the molar mass of the structure shown. Residues, ends and D or L forms follow the SMILES beside them.

Assays:
[1] = Determination of peptide hydrophobicity with RP-HPLC (adjusted retention time); type: physicochemical; conditions: RP-HPLC C18, linear 10–55% acetonitrile over 60 min, 0.1% TFA, 25.0 °C, UV 214 nm, triplicate; for tR’: Table 3, adjusted retention time as hydrophobicity
Protocol: To determine peptide hydrophobicity, the Waters Alliance e2695 system with a Waters 2998 PDA Detector (software-Empower®3) was used. All analyses were carried out on a Phenomenex Luna C18(2) column (3.0 × 100 mm, 5 µm particle size, 100 Å pore size). The peptides were dissolved in water (0.1% TFA, v/v) to obtain a concentration of 1 g/L. UV detection at 214 nm was used, and aliquots (10 µL) were eluted with a linear 10–55% acetonitrile gradient in deionized water over 60 min at 25.0 ± 0.1 °C. The mobile phase flow rate was 0.5 mL/min. Both eluents contained 0.1% (v/v) of TFA. Each peptide sample was analyzed in triplicate.

S. aureus ATCC 25923 = type: cell-based, Staphylococcus aureus; conditions: ATCC 25923, 18 h
Text: (§1) The Acinetobacter baumannii ATCC BAA-1605, Candida albicans ATCC 10231, Enterococcus faecium ATCC 700221, Klebsiella aerogenes ATCC 13048 (previously known as Enterobacter aerogenes), Klebsiella pneumoniae ATCC 700603, Pseudomonas aeruginosa ATCC 9027, Staphylococcus aureus ATCC 25923 and MRSA ATCC 33591, were acquired from the American Type Culture Collection (ATCC). Before running the tests, beads with cryo-protected microorganisms were transferred into fresh MHB (BioMaxima, Lublin, Poland) for bacteria or RPMI-1640 for fungi and incubated for 24 h at 37 °C. Then, the culture was seeded on the Mueller-Hinton agar (MHA) plates (BioMaxima, Lublin, Poland) for bacteria or Sabouraud dextrose agar (SDA) plates (BioMaxima, Lublin, Poland) for fungi and incubated as just mentioned. Cell densities for all assays were adjusted spectrophotometrically (Multiskan™ GO Microplate Spectrophotometer, Thermo Fisher Scientific, Vantaa, Finland) at 600 nm for bacteria and at 530 nm for fungi.
(§2) The MICs were determined by broth microdilution method according to the Clinical and Laboratory Standard Institute guidelines. For this purpose initial inoculums of bacteria (5 × 10^5 CFU/mL) in MHB (BioMaxima, Lublin, Poland) and fungi (2 × 10^3 CFU/mL) in RPMI-1640 with 2% D-glucose (Merck, Darmstadt, Germany) prepared with MOPS (pH 7.0 ± 0.1 at 25 °C; Merck, Darmstadt, Germany) were exposed to the ranging concentration of lipopeptides (0.5–256 µg/mL) and incubated at 37 °C for 18 h and 24 h respectively. The experiments were conducted on 96-well microtiter polystyrene plates (Kartell, Italy). The MIC was taken as the lowest peptide concentration at which a noticeable growth of microorganisms was inhibited. All experiments were conducted in triplicate.

[2] = test system: S. aureus ATCC 33591 (MRSA); type: cell-based, Staphylococcus aureus; conditions: ATCC 33591, 18 h
Text: as §1, §2

P. aeruginosa ATCC 9027 = type: cell-based, Pseudomonas aeruginosa; conditions: ATCC 9027, 18 h
Text: as §1, §2

C. albicans ATCC 10231 = type: cell-based, Candida albicans; conditions: ATCC 10231, 24 h, pH 7
Text: as §1, §2

[3] = test system: human red blood cells (hRBCs); type: cell-based; conditions: red cells of human, 1 h
Protocol: The hemolysis assay was performed as described earlier according to the method of Avrahami and Shai. Fresh human red blood cells (hRBCs) with anticoagulant (EDTA) were rinsed three times with a PBS (Merck, Darmstadt, Germany) by centrifugation at 800× g for 10 min and resuspended in PBS. Lipopeptides were serially diluted on 96-well microtiter polystyrene plate and hRBCs were added to reach final volume of 100 µL. Peptide concentration ranged between 0.5 and 256 µg/mL and final hRBCs concentration was 4% (v/v). Controls for zero hemolysis (blank) and 100% hemolysis consisted of hRBCs suspended in PBS and 1% of Triton-X 100 (Merck, Darmstadt, Germany), respectively. The plate was incubated for 1 h at 37 °C and then centrifuged (800× g, 10 min, 4 °C). Subsequently, supernatant was […] to new microtiter plates and absorbance at 540 nm were measured. All experiments were conducted in triplicate. Protocol of the study received approval from the local Bioethics Committee at the Medical University of Gdańsk (NKBBN/262/2019).

E. faecium ATCC 700221 = type: cell-based, Enterococcus faecium; conditions: ATCC 700221, 18 h
Text: as §1, §2

[4] = test system: K. pneumoniae ATCC 700603; type: cell-based, Klebsiella pneumoniae; conditions: ATCC 700603, 18 h
Text: as §1, §2

[5] = test system: A. baumannii ATCC BAA-1605; type: cell-based, Acinetobacter baumannii; conditions: ATCC BAA-1605, 18 h
Text: as §1, §2

K. aerogenes ATCC 13048 = type: cell-based, Klebsiella aerogenes; conditions: ATCC 13048, 18 h
Text: as §1, §2

Compound	tR’ [1] [min]	MIC SA (S. aureus ATCC 25923) [µg/mL]	MIC S [2] [µg/mL]	MIC PA (P. aeruginosa ATCC 9027) [µg/mL]	MIC CA (C. albicans ATCC 10231)	HC50 [3]	MIC E1 (E. faecium ATCC 700221) [µg/mL]	MIC K [4] [µg/mL]	MIC A [5] [µg/mL]	MIC E2 (K. aerogenes ATCC 13048)	Adjusted retention time ([1]; Table 2, nC = carbon atoms in fatty acid chain) [min]
CCCCCCCCCCCCCC(=O)N[C@@H](CCSC)C(=O)N[C@@H](CCCNC(=N)N)C(=O)N[C@@H](CCCNC(=N)N)C(N)=O [compound 50, C14-MRR-NH2] (HELM PEPTIDE1{[CCCCCCCCCCCCCC(=O)[*:2]].M.R.R.[am]}$$$$V2.0)	44.69	4 (≈ 5.96 µM)	8 (≈ 11.9 µM)	8 (≈ 11.9 µM)	4 µg/mL (≈ 5.96 µM)	35.11 (±0.90) µg/mL	8 (≈ 11.9 µM)	128 (≈ 191 µM)	32 (≈ 47.7 µM)	128 µg/mL (≈ 191 µM)	–
CCCCCCCCCCCCCC(=O)N[C@@H](CC[S+](C)[O-])C(=O)N[C@@H](CCCNC(=N)N)C(=O)N[C@@H](CCCNC(=N)N)C(N)=O (some centres unmarked) [compound 54, C14-M(O)RR-NH2] (HELM PEPTIDE1{[CCCCCCCCCCCCCC(=O)[*:2]].[CS(=O)CC[C@H](N[*:1])C(=O)[*:2]].R.R.[am]}$$$$V2.0)	39.18	32 (≈ 46.6 µM)	16 (≈ 23.3 µM)	64 (≈ 93.2 µM)	32 µg/mL (≈ 46.6 µM)	116.28 (±1.77) µg/mL	16 (≈ 23.3 µM)	256 (≈ 373 µM)	64 (≈ 93.2 µM)	>256 (-) µg/mL	–
CCCCCCCCCCCCCC(=O)N[C@@H](CCS(C)(=O)=O)C(=O)N[C@@H](CCCNC(=N)N)C(=O)N[C@@H](CCCNC(=N)N)C(N)=O [compound 58, C14-M(O2)RR-NH2] (HELM PEPTIDE1{[CCCCCCCCCCCCCC(=O)[*:2]].[CS(=O)(=O)CC[C@H](N[*:1])C(=O)[*:2]].R.R.[am]}$$$$V2.0)	41.17	16 (≈ 22.8 µM)	16 (≈ 22.8 µM)	32 (≈ 45.5 µM)	16 µg/mL (≈ 22.8 µM)	70.11 (±2.93) µg/mL	8 (≈ 11.4 µM)	256 (≈ 364 µM)	32 (≈ 45.5 µM)	256 µg/mL (≈ 364 µM)	–
CCCCCCCCCCCCCC(=O)N[C@@H](CC(N)=O)C(=O)N[C@@H](CCCNC(=N)N)C(=O)N[C@@H](CCCNC(=N)N)C(N)=O [compound 62, C14-NRR-NH2] (HELM PEPTIDE1{[CCCCCCCCCCCCCC(=O)[*:2]].N.R.R.[am]}$$$$V2.0)	38.71	16 (≈ 24.5 µM)	16 (≈ 24.5 µM)	32 (≈ 48.9 µM)	16 µg/mL (≈ 24.5 µM)	64.37 (±2.23) µg/mL	8 (≈ 12.2 µM)	128 (≈ 196 µM)	32 (≈ 48.9 µM)	128 µg/mL (≈ 196 µM)	–
CCCCCCCCCCCC(=O)N[C@@H](CCCC)C(=O)N[C@@H](CCCNC(=N)N)C(=O)N[C@@H](CCCNC(=N)N)C(N)=O [compound 65, C12-NleRR-NH2] (HELM PEPTIDE1{[CCCCCCCCCCCC(=O)[*:2]].[Nle].R.R.[am]}$$$$V2.0)	–	8 (≈ 12.8 µM)	8 (≈ 12.8 µM)	8 (≈ 12.8 µM)	16 (>16) µg/mL	>256 µg/mL	8 (≈ 12.8 µM)	256 (≈ 410 µM)	32 (≈ 51.2 µM)	256 µg/mL (≈ 410 µM)	39.958
